Measured values from the supplement of paper PMC8967900.

Legend:
Assay in all cases: selective drug sensitivity score (sDSS, relative to normal bone marrow) (sDSS (score)); higher = more potent and effective on the cell line relative to normal bone marrow cells
Conditions in all cases: 72 h
380 = test system: 380
697 = test system: 697
ALL-SIL = test system: ALL-SIL
CCRF-CEM = test system: CCRF-CEM
COG-LL-317 = test system: COG-LL-317
COG-LL-394h = test system: COG-LL-394h
COG-LL-402h = test system: COG-LL-402h
HPB-ALL = test system: HPB-ALL
JURKAT = test system: JURKAT
KASUMI-10 = test system: KASUMI-10
KASUMI-2 = test system: KASUMI-2
KASUMI-9 = test system: KASUMI-9
KOPN-8 = test system: KOPN-8
MHH-CALL-3 = test system: MHH-CALL-3
MHH-CALL-4 = test system: MHH-CALL-4
MOLT-4 = test system: MOLT-4
NALM-16 = test system: NALM-16
NALM-6 = test system: NALM-6
PF-382 = test system: PF-382
TMD5 = test system: TMD5
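Note: ALL cell lines in 384-well plates, five doses spanning 10,000-fold, each plate scaled between vehicle and 100 µmol/L benzalkonium chloride controls, sDSS an adapted area-under-curve metric.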

Structure (SMILES)	selective drug sensitivity score 380	selective drug sensitivity score 697	selective drug sensitivity score (ALL-SIL)	selective drug sensitivity score (CCRF-CEM)	selective drug sensitivity score (COG-LL-317)	selective drug sensitivity score (COG-LL-394h)	selective drug sensitivity score (COG-LL-402h)	selective drug sensitivity score (HPB-ALL)	selective drug sensitivity score (JURKAT)	selective drug sensitivity score (KASUMI-10)	selective drug sensitivity score (KASUMI-2)	selective drug sensitivity score (KASUMI-9)	selective drug sensitivity score (KOPN-8)	selective drug sensitivity score (MHH-CALL-3)	selective drug sensitivity score (MHH-CALL-4)	selective drug sensitivity score (MOLT-4)	selective drug sensitivity score (NALM-16)	selective drug sensitivity score (NALM-6)	selective drug sensitivity score (PF-382)	selective drug sensitivity score (TMD5)
COc1cc2c(N3CCN(C(=O)Nc4ccc(OC(C)C)cc4)CC3)ncnc2cc1OCCCN1CCCCC1 [Tandutinib] (top concentration 1000 nM)	0	0	0	0	0.7	0.3	0	0	0	4.5	0	0	0	0	0	0	0.8	0	0	0
COc1cccc(-c2ccc(NC(=O)C3=C(C(=O)O)CCC3)c(F)c2)c1 [Vidofludimus] (top concentration 10000 nM)	5	6	3.2	3.1	4.3	0	0	3.2	8.2	0.5	6.2	2.7	5.5	0.7	2.8	3.6	3.5	3.4	4.8	0
COc1cc2c(Oc3ccc4[nH]c(C)cc4c3F)ncnc2cc1OCCCN1CCCC1 [Cediranib] (top concentration 1000 nM)	0	0.9	0	0.1	0.1	0	0	0	0	0	0	3.6	0	0	0	0.1	0	0	0	3.6
Cc1cc(-c2ncc(CC(=O)Nc3ccc(-c4cnccn4)cn3)cc2C)ccn1 [NVP-LGK974] (top concentration 10000 nM)	1	5.6	0	-0.5	-1.2	6.2	-0.1	-0.6	7.3	0.8	1	0.1	2.6	2	3.5	3.9	0.7	3.7	2.7	3.4
O=C(O)CNC(=O)c1c(O)c2ccccc2n(Cc2ccccc2)c1=O [IOX-2] (top concentration 50000 nM)	8.98	2.28	-0.82	-0.82	-0.82	-0.82	-0.82	0.68	-0.82	-0.82	3.38	-0.42	2.48	0.88	-0.82	-0.82	-0.62	-0.32	-0.82	-0.82
COc1cc2ncnc(Nc3cccc(Cl)c3F)c2cc1OC(=O)N1CCN(C)C[C@H]1C [AZD3759] (top concentration 1000 nM)	-0.04	-0.04	5.76	-0.04	-0.04	-0.04	-0.04	-0.04	-0.04	-0.04	-0.04	-0.04	-0.04	-0.04	-0.04	-0.04	-0.04	-0.04	-0.04	0.06
COc1cc(Br)c(Nc2nc(-c3c(C)nc4ncccn34)cs2)c(Br)c1 [PTC-209] (top concentration 10000 nM)	-1.48	5.62	0.42	0.52	0.42	-2.58	-0.78	6.92	0.62	0.92	-2.68	1.92	4.82	-5.08	-2.68	-0.48	-2.38	2.22	-0.68	-2.18
Cc1cc2c(C(=O)NC[C@H](C)c3ccccc3)c(O)c(O)cc2c(O)c1-c1c(C)cc2c(C(=O)NC[C@H](C)c3ccccc3)c(O)c(O)cc2c1O [Sabutoclax] (top concentration 25000 nM)	14.1	15.9	12.2	13.8	15.6	15.7	15.3	19.4	16.7	5.18	11.3	14.9	17.9	-8.12	-7.22	9.18	6.78	14.3	11.1	-7.42
